Assays:
[1] = molecular target: T1, Rat recombinant α2,6(N)ST (Rattus norvegicus, UniProt P13721); experiment: Sialyltransferase assay with cloned α2,6(N)ST; assay type: biochemical; details: Table I; acceptor 7.5 mM; 100% = 43500 CPM (Galβ1,4GlcNAcβ-O—Al)
T1 construct: purchased Calbiochem
T1 sequence (P13721 1-403): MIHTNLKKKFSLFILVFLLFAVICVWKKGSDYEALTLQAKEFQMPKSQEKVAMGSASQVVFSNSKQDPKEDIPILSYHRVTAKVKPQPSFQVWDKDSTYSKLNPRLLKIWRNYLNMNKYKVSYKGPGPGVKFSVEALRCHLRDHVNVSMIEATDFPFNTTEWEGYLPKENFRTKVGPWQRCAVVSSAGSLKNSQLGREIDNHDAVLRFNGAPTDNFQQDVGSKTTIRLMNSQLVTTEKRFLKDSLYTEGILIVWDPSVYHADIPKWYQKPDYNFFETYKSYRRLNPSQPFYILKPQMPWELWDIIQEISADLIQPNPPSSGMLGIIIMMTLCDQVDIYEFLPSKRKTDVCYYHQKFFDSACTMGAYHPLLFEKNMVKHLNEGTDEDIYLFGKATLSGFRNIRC

[2] = tested on: α1,4-L-FT of colon tumor CC9338; experiment: α1,4-L-FT assay, colon tumor extract; assay type: biochemical, human; details: 1 mg protein of the tissue extract
Procedure: Colon tumor tissue (CC9338) and breast tumor tissue (BC9400) were obtained during surgical procedures at Roswell Park Cancer Institute and stored frozen within 1 h at −70° C. The tissues were homogenized at 4° C. with 4 volumes of 0.1M Tris Maleate […] 0.1% NaN3 using kinematica. After adjusting the concentration of Triton X-100 to 2%, these homogenates were mixed in the cold room for 1 h using Speci-Mix (Thermolyne) and then centrifuged at 20,000 g for 1 h at 4° C. The clear fat-free supernatant was stored frozen at −20° C. until use. Aliquots of 10 μL from this extract were used in assays run in duplicates. Glycosyltransferase activity in cell lysate was determined by mixing the lysates with acceptor and radiolabeled donor (monosaccharide) under the reaction conditions detailed below, followed by separation of un-reacted donor from the radioactive product using anionic or hydrophobic chromatography. In all cases, the radioactive content of isolated products was determined by using 3a70 scintillation cocktail (Research Products International, Mount Prospect, Ill.) and a Beckman LS6500 scintillation counter. Controls for each assay contained the reaction mixture with everything except the acceptor. All assays were run in duplicate. […]

| Structure (SMILES) | Sialyltransferase activity (%) Cloned α2,6(N)ST [1] [%] | α1,4-L-FT activity: incorporation of radioactive sugar [2] [CPM × 10^−3] |
| --- | --- | --- |
| CO[C@H]1O[C@H](CO)[C@H](O)[C@H](O[C@@H]2O[C@H](CO)[C@H](O)[C@H](O[C@@H]3O[C@H](C)[C@H](O)[C@H](O)[C@H]3O)[C@H]2NC(C)=O)[C@H]1O [D-Fucβ1,3GalNAcβ1,3Galα-O-Me] | 2.5 |  |
| C=CCO[C@H]1O[C@H](CO)[C@H](O)[C@H](O[C@@H]2O[C@H](CO)[C@H](O)[C@H](O)[C@H]2O)[C@H]1NC(C)=O [Galβ1,3GalNAcα-O—Al] | 0.2 |  |
| CO[C@H]1O[C@H](CO)[C@H](O)[C@H](O[C@@H]2O[C@H](CO)[C@H](O)[C@H](O[C@@H]3O[C@H](CO)[C@H](O)[C@H](O)[C@H]3O)[C@H]2NC(C)=O)[C@H]1O [Galβ1,3GalNAcβ1,3Galα-O-Me] | 1.1 |  |

Now from value to molecule, other results behind:

| Sialyltransferase activity (%) Cloned α2,6(N)ST [1] [%] | Structure (SMILES) | α1,4-L-FT activity: incorporation of radioactive sugar [2] [CPM × 10^−3] |
| --- | --- | --- |
| 90.1 | CO[C@H]1[C@H](O[C@H]2[C@H](O)[C@@H](NC(C)=O)C(O)O[C@@H]2CO)O[C@H](CO)[C@H](O)[C@@H]1O (stereo partly drawn) [2-O-MeGalβ1,4GlcNAc] |  |
| 3.7 | CO[C@H]1[C@H](O[C@H]2[C@H](O)[C@@H](CO)OC(O)[C@@H]2NC(C)=O)O[C@H](CO)[C@H](O)[C@@H]1O (stereo partly drawn) [2-O-MeGalβ1,3GlcNAc] | 727.5 |
